From US7608577B2, “Peptidyl ketones as inhibitors of DPIV” (OSI Pharmaceuticals, Inc., priority 2001, dated 2009)
Where a name gives a salt, the structure may show the parent alone. Read-outs that look alike come from different tables or passages of the source.

Tests used:
[1] = target: T1, dipeptidyl peptidase IV from porcine kidney (Sus scrofa, UniProt P22411); assay: Ki determination, DPIV inhibition (inhibitor released from prodrug by APN); assay type: biochemical; details: for Ki: porcine kidney DPIV, substrate Gly-Pro-pNA, APN added to release inhibitor, HEPES pH7.6; for T1/2 (half-life, from enzyme activity versus reaction time): same assay as Ki, unstable competitive inhibitor
T1 construct: dipeptidyl peptidase IV from porcine kidney with a specific activity against glycylprolyl-4-nitroaniline of 37.5 U/mg; from tissue; host or cells: porcine kidney
Procedure: 500 μl test compound in a concentration range of 1*10^−5 M-1*10^−11M were admixed with and 500 μl HEPES buffer (40 mM, pH7.6; ion strength=0.125) and 20 μl of diluted DPIV. Release of the inhibitor from the prodrug as well the monitoring reaction (DPIV-catalyzed hydrolysis of Gly-Pro-pNA) were started by addition of a mixture of 10 μl of APN stock solution (4.9 mg/ml, Sigma, Taufkirchen, Germany) with 250 μl of the substrate (Gly-Pro-pNA, 0.05-4 mM). Development of yellow color due to 4-nitroaniline release were monitored at λ=405 nm for up to 180 min using UV1 Spectrometer (ThermoSpectronic).
The Ki-values were calculated by fitting the first derivative of the time-progress curves using Graphit (v.4.0.13, Erithacus Software, Ltd, UK) and an equation for an unstable competitive inhibitor.
The half-life (t1/2) was calculated by plotting the enzyme activity versus reaction time.

porcine DPIV = porcine DPIV (Sus scrofa, UniProt P22411); assay: Determination of IC50 values against DPIV; assay type: biochemical; details: Gly-Pro-pNA 0.4 mM, APN, 30° C.
Procedure: 100 μl inhibitor stock solution was mixed with 100 μl buffer (HEPES pH7.6) and 20 μl diluted porcine DPIV and preincubated at 30° C. Reaction was started by addition of a mixture of 50 μl substrate (Gly-Pro-pNA, final concentration 0.4 mM) and 2 μl APN stock solution. Formation of the product pNA was measured at 405 nm and 30° C. over 10 min using the HTS 7000Plus plate reader (Perkin Elmer) and slopes were calculated. The final inhibitor concentrations ranged between 1 mM and 30 nM. For calculation of IC50 GraFit 4.0.13 (Erithacus Software) was used.

Wistar rats = assay: Glucose tolerance (OGTT) in Wistar rats under identical experimental conditions; assay type: in vivo; details: 100 mg/kg b.w. oral

T1 sequence (P22411 whole entry): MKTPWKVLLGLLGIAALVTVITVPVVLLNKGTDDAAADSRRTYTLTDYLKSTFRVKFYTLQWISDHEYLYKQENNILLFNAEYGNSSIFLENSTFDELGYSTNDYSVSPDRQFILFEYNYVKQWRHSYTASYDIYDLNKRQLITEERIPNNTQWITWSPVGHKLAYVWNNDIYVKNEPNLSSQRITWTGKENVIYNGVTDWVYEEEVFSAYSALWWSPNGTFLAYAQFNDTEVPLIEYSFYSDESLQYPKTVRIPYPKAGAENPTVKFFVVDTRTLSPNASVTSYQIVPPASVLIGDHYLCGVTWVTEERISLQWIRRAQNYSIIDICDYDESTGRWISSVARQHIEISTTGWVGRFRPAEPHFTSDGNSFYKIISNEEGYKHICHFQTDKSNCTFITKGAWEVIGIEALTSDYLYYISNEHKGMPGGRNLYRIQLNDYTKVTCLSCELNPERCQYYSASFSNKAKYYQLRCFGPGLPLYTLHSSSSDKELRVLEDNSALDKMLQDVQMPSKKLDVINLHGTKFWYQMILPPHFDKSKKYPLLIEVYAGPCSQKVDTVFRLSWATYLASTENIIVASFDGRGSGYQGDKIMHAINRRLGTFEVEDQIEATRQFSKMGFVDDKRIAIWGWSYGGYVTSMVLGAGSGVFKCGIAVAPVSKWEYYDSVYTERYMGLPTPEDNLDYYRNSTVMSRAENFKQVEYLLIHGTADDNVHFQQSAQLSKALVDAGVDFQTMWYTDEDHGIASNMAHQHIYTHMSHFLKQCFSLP
Sequence of porcine DPIV (P22411 whole entry): as above

| SMILES | Ki ([1]; read-out: Ki) [µM] | IC50 (porcine DPIV; HEPES pH7.6, read-out: IC50) [µM] | T1/2 (half-life, from enzyme activity versus reaction time) [1] [min] | further results |
| --- | --- | --- | --- | --- |
| CC(C)[C@H](NC(=O)[C@H](C)N)C(=O)N1CCC[C@H]1C(=O)CSCc1c(Cl)cccc1Cl [2-{[(2,6-Dichlorobenzyl)thiomethyl]carbonyl}-1-N-[{(L)-Alanyl}-(L)-Valinyl]-(2S)-pyrrolidine] | < 0.1 | 79.7 | – | – |
| C[C@H](N)C(=O)NCC(=O)N1CCC[C@H]1C(=O)c1nc2ccccc2s1.O=C(O)C(F)(F)F [H-Ala-Gly-Pro-CO-Benzothiazole*TFA, 2-[(Benzothiazol-2-yl)carbonyl]-1-N-[{(L)-Alanyl}-Glycyl]-(2S)-pyrrolidine trifluoroacetate] | 0.107 | – | 5.1 | – |
| Br.CC(C)[C@H](NC(=O)CN)C(=O)N1CCC[C@H]1C(=O)COC(=O)c1ccccc1 [H-Gly-Val-Pro-CO—CH2O—CO—Ph*HBr, 2-[(Benzoyloxy-methyl)carbonyl]-1-N-[Glycyl-(L)-Valinyl]-(2S)-pyrrolidine hydrobromide] | – | 4.94 | – | Ki [1]: no inhibition |
| Br.CC(=O)[C@@H]1CCCN1C(=O)[C@@H](NC(=O)[C@@H]1CCCN1C(=O)[C@@H](N)C(C)C)C(C)C [H-Val-Pro-Val-Pro-Me*HBr, 2-Methylcarbonyl-1-N-[(L)-Valinyl-(L)-Prolyl-(L)-Valinyl]-(2S)-pyrrolidine hydrobromide] | – | – | – | AUC test compound (Wistar rats): 66.4 mmol·min/L; Improvement (Wistar rats; vs AUC control): 44.1% |

Continued, in another order:

| Ki ([1]; read-out: Ki) [µM] | IC50 (porcine DPIV; HEPES pH7.6, read-out: IC50) [µM] | T1/2 (half-life, from enzyme activity versus reaction time) [1] [min] | SMILES | further results |
| --- | --- | --- | --- | --- |
| – | 1100 | – | CC(C)[C@H](NC(=O)[C@H](C)N)C(=O)N1CCC[C@H]1C(=O)c1ccccn1 [H-Ala Val-Pro-CO-(2-Pyridinyl)*TFA, 2-[(Pyridin-2-yl)carbonyl]-1-N-[{(L)-Alanyl}-(L)-Valinyl]-(2S)-pyrrolidine trifluoroacetate] | – |
| 0.0373 | – | 17.0 | CC(C)[C@H](NC(=O)[C@H](C)N)C(=O)N1CCC[C@H]1C(=O)c1nc2ccccc2s1.O=C(O)C(F)(F)F [H-Ala-Val-Pro-CO-Benzothiazole*TFA, 2-[(Benzothiazol-2-yl)carbonyl]-1-N-[{(L)-Alanyl}-(L)-Valinyl]-(2S)-pyrrolidine trifluoroacetate] | – |
| 0.0332 | – | 15.1 | CC(C)[C@H](NC(=O)[C@H](C)N)C(=O)N1CCC[C@H]1C(=O)c1nccs1.O=C(O)C(F)(F)F [H-Ala-Val-Pro-CO-Thiazole*TFA, 2-[([1,3]-Thiazol-2-yl)carbonyl]-1-N-[{(L)-Alanyl}-(L)-Valinyl]-(2S)-pyrrolidine trifluoroacetate] | IC50 (porcine DPIV; HEPES pH7.6): no inhibition |
